Assay results as given in ChEMBL document CHEMBL3132769, “Fragment growing to retain or alter the selectivity of anchored kinase hinge-binding fragments” (Medchemcomm, 2014).

What was measured:
[1] = biological target: Casein kinase I isoform alpha (Homo sapiens) (UniProt P48729); experiment: Inhibition of human full length CSNK1A1 expressed in baculovirus assessed as substrate phosphorylation using fluorescence-labelled peptides as substrate at 0.06 uM after 90 mins by microfluidic peptide phosphorylation assay
[2] = biological target: Epidermal growth factor receptor (Homo sapiens) (UniProt P00533); experiment: Inhibition of human EGFR catalytic domain expressed in baculovirus assessed as substrate phosphorylation using fluorescence-labelled peptides as substrate at 420 uM after 90 mins by microfluidic peptide phosphorylation assay
[3] = biological target: Tyrosine-protein kinase Fyn (Homo sapiens) (UniProt P06241); experiment: Inhibition of human full length FYN expressed in baculovirus assessed as substrate phosphorylation using fluorescence-labelled peptides as substrate at 420 uM after 90 mins by microfluidic peptide phosphorylation assay
[4] = biological target: T1, Testis-specific serine/threonine-protein kinase 2 (Homo sapiens) (UniProt Q96PF2); experiment: Inhibition of human full length TSSK2 expressed in baculovirus assessed as substrate phosphorylation using fluorescence-labelled peptides as substrate at 420 uM after 90 mins by microfluidic peptide phosphorylation assay
T1 sequence (whole entry): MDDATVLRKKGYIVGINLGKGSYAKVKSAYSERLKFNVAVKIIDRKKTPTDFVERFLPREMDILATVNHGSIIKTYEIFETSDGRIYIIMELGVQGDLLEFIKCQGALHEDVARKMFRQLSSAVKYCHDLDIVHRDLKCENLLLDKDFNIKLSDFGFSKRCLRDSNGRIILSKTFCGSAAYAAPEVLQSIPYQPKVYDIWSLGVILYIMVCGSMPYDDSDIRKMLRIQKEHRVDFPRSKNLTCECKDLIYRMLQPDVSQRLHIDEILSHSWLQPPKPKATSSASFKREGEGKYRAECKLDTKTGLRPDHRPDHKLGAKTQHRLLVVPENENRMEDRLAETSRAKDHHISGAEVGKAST

[5] = biological target: Tyrosine-protein kinase BTK (Homo sapiens) (UniProt Q06187); experiment: Inhibition of human full length BTK expressed in baculovirus assessed as substrate phosphorylation using fluorescence-labelled peptides as substrate at 0.2 uM after 90 mins by microfluidic peptide phosphorylation assay
[6] = biological target: Protein kinase C beta type (Homo sapiens) (UniProt P05771); experiment: Inhibition of human full length PKC beta2 expressed in baculovirus assessed as substrate phosphorylation using fluorescence-labelled peptides as substrate at 0.2 uM after 90 mins by microfluidic peptide phosphorylation assay
[7] = biological target: Insulin-like growth factor 1 receptor (Homo sapiens) (UniProt P08069); experiment: Inhibition of human IGF1R catalytic domain expressed in baculovirus assessed as substrate phosphorylation using fluorescence-labelled peptides as substrate at 0.2 uM after 90 mins by microfluidic peptide phosphorylation assay
[8] = biological target: T2, Testis-specific serine/threonine-protein kinase 1 (Homo sapiens) (UniProt Q9BXA7); experiment: Inhibition of human full length TSSK1 expressed in baculovirus assessed as substrate phosphorylation using fluorescence-labelled peptides as substrate at 0.2 uM after 90 mins by microfluidic peptide phosphorylation assay
T2 sequence (whole entry): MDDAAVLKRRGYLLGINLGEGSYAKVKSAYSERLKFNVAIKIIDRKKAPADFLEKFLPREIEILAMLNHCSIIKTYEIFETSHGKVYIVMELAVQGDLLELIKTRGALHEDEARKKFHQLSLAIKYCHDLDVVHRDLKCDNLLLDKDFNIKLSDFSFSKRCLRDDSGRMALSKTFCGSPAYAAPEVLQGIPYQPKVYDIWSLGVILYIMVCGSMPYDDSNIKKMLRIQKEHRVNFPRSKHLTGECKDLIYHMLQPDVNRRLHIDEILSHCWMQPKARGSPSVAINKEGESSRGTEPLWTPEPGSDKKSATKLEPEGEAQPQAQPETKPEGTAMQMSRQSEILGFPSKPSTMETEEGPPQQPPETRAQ

[9] = biological target: Serine/threonine-protein kinase MARK2 (Homo sapiens) (UniProt Q7KZI7); experiment: Inhibition of human full length MARK2 expressed in baculovirus assessed as substrate phosphorylation using fluorescence-labelled peptides as substrate at 0.2 uM after 90 mins by microfluidic peptide phosphorylation assay
[10] = biological target: Tyrosine-protein kinase Lyn (Homo sapiens) (UniProt P07948); experiment: Inhibition of human full length LYN expressed in baculovirus assessed as substrate phosphorylation using fluorescence-labelled peptides as substrate at […] after 90 mins by microfluidic peptide phosphorylation assay
[11] = biological target: T3, Serine/threonine-protein kinase Nek2 (Homo sapiens) (UniProt P51955); experiment: Inhibition of human full length NEK2 expressed in baculovirus assessed as substrate phosphorylation using fluorescence-labelled peptides as substrate at 95 uM after 90 mins by microfluidic peptide phosphorylation assay
T3 sequence (whole entry): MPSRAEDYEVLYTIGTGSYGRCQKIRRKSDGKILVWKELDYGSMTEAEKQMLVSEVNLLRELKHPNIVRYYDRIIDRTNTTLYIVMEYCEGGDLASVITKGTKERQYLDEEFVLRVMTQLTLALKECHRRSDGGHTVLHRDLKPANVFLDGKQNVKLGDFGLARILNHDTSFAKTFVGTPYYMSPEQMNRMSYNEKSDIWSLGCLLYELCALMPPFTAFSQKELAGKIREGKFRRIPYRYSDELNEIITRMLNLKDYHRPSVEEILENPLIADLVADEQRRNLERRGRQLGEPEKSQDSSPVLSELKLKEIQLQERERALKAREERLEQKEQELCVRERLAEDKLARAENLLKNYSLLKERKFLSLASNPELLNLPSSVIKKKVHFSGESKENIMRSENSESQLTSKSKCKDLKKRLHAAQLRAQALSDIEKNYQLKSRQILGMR

[12] = biological target: Fibroblast growth factor receptor 1 (Homo sapiens) (UniProt P11362); experiment: Inhibition of human FGFR1 catalytic domain expressed in baculovirus assessed as substrate phosphorylation using fluorescence-labelled peptides as substrate at 95 uM after 90 mins by microfluidic peptide phosphorylation assay
[13] = biological target: Mitogen-activated protein kinase 1 (Homo sapiens) (UniProt P28482); experiment: Inhibition of human full length ERK2 expressed in Escherichia coli cell assessed as substrate phosphorylation using fluorescence-labelled peptides as substrate at 1000 uM after 90 mins by microfluidic peptide phosphorylation assay
[14] = biological target: Ribosomal protein S6 kinase alpha-2 (Homo sapiens) (UniProt Q15349); experiment: Inhibition of human full length RSK3 expressed in baculovirus assessed as substrate phosphorylation using fluorescence-labelled peptides as substrate at 1000 uM after 90 mins by microfluidic peptide phosphorylation assay

Chain of Fibroblast growth factor receptor 1 (Homo sapiens) (P11362 22-822 limits assumed): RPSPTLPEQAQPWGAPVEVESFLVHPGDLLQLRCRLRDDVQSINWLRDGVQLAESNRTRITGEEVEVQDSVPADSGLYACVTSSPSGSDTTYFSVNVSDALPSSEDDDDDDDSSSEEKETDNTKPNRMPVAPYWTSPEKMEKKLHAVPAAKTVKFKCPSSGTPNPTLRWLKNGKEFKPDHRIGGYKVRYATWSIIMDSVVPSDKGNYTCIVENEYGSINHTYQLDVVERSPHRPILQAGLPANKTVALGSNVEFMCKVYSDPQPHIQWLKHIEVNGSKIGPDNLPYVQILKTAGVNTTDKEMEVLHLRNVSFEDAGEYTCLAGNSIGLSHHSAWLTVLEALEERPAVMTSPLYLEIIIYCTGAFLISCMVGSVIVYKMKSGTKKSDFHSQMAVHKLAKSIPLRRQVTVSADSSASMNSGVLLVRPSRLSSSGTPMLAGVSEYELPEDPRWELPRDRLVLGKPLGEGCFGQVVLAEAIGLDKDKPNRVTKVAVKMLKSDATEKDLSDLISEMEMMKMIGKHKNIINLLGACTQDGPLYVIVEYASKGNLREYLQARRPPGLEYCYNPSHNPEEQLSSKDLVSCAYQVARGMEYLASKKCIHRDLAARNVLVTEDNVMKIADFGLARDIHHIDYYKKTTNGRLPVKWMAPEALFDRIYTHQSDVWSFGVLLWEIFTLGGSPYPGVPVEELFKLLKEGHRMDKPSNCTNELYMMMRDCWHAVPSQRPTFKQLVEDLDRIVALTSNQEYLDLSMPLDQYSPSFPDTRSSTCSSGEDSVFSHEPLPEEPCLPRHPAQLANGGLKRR
Chain of Protein kinase C beta type (Homo sapiens) (P05771 2-671 limits assumed): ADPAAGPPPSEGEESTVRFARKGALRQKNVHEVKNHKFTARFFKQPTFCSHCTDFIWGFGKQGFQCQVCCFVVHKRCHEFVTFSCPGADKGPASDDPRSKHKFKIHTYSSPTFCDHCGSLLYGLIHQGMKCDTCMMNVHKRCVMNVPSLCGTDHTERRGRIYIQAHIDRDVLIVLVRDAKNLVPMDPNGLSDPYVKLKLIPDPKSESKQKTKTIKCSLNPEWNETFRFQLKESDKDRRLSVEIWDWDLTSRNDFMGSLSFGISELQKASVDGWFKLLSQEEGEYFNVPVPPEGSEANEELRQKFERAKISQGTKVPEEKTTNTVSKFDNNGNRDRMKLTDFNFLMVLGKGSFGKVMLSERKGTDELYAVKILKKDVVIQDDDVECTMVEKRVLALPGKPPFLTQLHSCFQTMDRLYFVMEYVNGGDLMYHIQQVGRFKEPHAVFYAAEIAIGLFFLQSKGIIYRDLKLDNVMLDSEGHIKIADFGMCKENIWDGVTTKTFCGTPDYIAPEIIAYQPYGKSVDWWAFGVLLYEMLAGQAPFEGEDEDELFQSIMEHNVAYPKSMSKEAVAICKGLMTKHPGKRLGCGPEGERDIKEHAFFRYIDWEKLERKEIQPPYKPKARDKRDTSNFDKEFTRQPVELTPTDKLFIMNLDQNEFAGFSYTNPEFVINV
Chain of Tyrosine-protein kinase Lyn (Homo sapiens) (P07948 2-512 limits assumed): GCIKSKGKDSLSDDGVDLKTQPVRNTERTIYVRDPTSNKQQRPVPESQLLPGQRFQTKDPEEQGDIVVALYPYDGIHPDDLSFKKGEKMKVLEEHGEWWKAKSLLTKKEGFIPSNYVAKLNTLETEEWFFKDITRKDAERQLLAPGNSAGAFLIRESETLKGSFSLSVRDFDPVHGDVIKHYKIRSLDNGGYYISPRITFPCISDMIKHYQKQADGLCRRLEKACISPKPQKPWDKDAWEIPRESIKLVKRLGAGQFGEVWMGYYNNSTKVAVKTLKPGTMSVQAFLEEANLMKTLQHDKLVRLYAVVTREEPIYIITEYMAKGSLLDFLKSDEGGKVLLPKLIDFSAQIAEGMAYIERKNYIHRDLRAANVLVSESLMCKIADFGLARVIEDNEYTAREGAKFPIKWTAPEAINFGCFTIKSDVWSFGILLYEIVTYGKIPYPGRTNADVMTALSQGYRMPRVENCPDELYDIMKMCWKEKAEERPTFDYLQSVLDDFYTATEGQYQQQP
Chain of Tyrosine-protein kinase BTK (Homo sapiens) (Q06187 whole entry): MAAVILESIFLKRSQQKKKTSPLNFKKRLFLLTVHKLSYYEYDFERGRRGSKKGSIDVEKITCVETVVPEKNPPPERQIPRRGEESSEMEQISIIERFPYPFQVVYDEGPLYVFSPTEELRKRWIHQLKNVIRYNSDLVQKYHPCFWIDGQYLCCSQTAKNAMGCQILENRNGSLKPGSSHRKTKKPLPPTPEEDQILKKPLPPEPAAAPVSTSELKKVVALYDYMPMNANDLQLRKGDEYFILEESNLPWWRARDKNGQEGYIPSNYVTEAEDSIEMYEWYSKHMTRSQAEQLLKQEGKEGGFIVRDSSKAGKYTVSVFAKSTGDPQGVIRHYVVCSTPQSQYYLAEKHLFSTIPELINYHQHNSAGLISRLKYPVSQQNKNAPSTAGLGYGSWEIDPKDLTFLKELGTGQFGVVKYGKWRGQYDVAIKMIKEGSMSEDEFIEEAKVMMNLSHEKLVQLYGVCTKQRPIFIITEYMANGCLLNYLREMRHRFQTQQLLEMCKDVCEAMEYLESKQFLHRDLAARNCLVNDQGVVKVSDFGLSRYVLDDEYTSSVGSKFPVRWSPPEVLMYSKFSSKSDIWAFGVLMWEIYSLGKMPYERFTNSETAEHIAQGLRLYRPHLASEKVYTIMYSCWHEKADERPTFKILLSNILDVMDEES
Chain of Tyrosine-protein kinase Fyn (Homo sapiens) (P06241 2-537 limits assumed): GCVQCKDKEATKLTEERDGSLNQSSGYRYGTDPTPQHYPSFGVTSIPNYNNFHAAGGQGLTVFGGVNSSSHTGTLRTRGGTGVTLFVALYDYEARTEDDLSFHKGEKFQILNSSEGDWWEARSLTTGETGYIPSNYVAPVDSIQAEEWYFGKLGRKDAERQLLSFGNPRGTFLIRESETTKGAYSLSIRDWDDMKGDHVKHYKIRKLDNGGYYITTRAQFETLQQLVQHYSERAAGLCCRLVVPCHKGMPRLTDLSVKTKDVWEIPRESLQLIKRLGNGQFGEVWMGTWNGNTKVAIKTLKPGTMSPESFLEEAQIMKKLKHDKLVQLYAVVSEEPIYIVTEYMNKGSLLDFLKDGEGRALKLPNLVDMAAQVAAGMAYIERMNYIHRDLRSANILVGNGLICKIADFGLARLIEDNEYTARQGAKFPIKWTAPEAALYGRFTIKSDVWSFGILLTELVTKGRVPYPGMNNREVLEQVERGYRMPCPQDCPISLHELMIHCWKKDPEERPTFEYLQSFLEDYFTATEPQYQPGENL
Chain of Epidermal growth factor receptor (Homo sapiens) (P00533 whole entry, the tested form may be a part): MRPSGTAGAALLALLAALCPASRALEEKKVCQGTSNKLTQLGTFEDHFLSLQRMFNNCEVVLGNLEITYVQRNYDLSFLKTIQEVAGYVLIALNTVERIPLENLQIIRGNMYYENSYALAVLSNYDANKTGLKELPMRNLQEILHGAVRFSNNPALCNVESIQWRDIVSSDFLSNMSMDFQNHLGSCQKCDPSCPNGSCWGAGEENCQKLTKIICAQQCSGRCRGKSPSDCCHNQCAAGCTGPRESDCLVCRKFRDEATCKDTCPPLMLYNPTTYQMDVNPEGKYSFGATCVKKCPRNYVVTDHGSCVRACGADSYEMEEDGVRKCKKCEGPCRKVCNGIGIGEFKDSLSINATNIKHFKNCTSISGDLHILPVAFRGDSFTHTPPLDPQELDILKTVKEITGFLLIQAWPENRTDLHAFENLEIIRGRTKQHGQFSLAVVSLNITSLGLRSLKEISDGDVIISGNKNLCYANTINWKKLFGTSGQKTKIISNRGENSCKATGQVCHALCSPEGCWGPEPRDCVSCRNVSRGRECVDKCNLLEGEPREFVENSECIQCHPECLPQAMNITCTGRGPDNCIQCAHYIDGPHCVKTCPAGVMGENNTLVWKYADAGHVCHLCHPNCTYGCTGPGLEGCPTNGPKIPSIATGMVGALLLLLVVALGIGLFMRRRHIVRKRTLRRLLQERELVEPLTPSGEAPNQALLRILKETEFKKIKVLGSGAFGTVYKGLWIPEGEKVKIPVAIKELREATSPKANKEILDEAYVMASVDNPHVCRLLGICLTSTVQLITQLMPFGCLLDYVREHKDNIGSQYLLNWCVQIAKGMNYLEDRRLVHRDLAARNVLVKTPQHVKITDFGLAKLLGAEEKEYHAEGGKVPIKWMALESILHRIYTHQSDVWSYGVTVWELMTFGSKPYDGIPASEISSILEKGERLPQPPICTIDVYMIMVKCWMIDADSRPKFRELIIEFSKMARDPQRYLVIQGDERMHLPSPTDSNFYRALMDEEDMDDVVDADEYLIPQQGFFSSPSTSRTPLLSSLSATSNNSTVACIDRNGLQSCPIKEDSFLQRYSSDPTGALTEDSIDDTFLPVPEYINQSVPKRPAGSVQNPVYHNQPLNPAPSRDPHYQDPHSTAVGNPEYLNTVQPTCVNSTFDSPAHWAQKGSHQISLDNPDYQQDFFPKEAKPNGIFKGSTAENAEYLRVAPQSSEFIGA
Chain of Casein kinase I isoform alpha (Homo sapiens) (P48729 2-337 limits assumed): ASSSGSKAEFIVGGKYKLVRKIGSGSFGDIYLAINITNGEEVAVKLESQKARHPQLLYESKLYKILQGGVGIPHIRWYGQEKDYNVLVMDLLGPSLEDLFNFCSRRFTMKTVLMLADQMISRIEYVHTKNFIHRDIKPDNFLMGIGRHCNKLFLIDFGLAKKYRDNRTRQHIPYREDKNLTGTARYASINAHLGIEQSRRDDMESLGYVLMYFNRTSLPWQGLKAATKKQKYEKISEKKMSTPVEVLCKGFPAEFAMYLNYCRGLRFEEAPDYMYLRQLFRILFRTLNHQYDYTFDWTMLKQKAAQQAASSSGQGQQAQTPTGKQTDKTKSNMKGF

NC1(Cc2ccc(Cl)cc2)CCN(c2ncnc3[nH]ccc23)CC1
inhibition [1]: 1%

c1nc(N2CCOCC2)c2nc[nH]c2n1
inhibition [2]: 29% | inhibition [3]: 64.5% | inhibition [4]: 24.5%

Clc1ccc(C2(c3ccc(-c4ncnc5[nH]cnc45)cc3)CCNCC2)cc1
inhibition [5]: 0% | inhibition [6]: 38.5% | inhibition [7]: 5% | inhibition [8]: 67% | inhibition [9]: 41.5%

COC(=O)c1cnc(Nc2cnc(C#N)cn2)cc1NCC1CCNCC1
inhibition [10]: 8%

NCCc1ccc(-c2ncnc3[nH]cnc23)cc1
inhibition [11]: 0% | inhibition [12]: 72%

c1cnc2[nH]ccc2c1
inhibition [13]: 23.5% | inhibition [14]: 71%
